Assay results published in patent US6136992A, “2-alkoxy estradiols and derivatives thereof” (The United States of America as represented by the …, priority 1998, dated 2000).

System: HL-60(TB)
Assay: NCI screen, leukemia
Assay type: cell-based
Conditions: Homo sapiens, read-out: Log10 GI50, HL-60(TB) (converted)

SMILES: C[C@]12CC[C@@H]3c4cc(OCC(F)(F)F)c(O)cc4C(=NO)C[C@H]3[C@@H]1CC[C@@H]2O [Compound 12, 2-(2',2', 2'-Trifluoroethoxy)-6-Hydroximino-Estra-1,3,5(10)-Triene-3,17β-Diol]
- GI50: < 10 nM
